According to patent US20240270821A1, “GIP/GLP1/GCG TRI-RECEPTOR AGONISTS AND USES THEREOF” (priority 2023, published 2024):
Like-named read-outs stand apart in the source and are kept apart here. Starred links: 1 amine or outer side, 2 acyl side, 3 side chain; linkers in the order of their positions; H or OH if unused. Non-standard residues stand in square brackets, D forms with d. Groups on a side chain read outwards from the residue. *: point of attachment. C20 diacid = O=C(O)CCCCCCCCCCCCCCCCCCC(=O)*; C18 diacid = O=C(O)CCCCCCCCCCCCCCCCC(=O)*; Phe(4-CN) = N#Cc1ccc(C[C@H](N)C(=O)O)cc1; αMePhe(2-F) = C[C@](N)(Cc1ccccc1F)C(=O)O; γGlu = O=C(O)[C@H](CCC(=O)[*:2])N[*:1]; αMe4Pal = C[C@](N)(Cc1ccncc1)C(=O)O; αMeY = C[C@](N)(Cc1ccc(O)cc1)C(=O)O; αMeF = C[C@](N)(Cc1ccccc1)C(=O)O; 4Pal = N[C@@H](Cc1ccncc1)C(=O)O; αMeL = CC(C)C[C@](C)(N)C(=O)O; αMeS = C[C@](N)(CO)C(=O)O; Orn = NCCC[C@H](N)C(=O)O; AEEA = NCCOCCOCC(=O)O; Aib = CC(C)(N)C(=O)O

Experiments:
Assay type in all cases: cell-based
[1] = molecular target: T1, hGLP-1R (Homo sapiens, UniProt P43220); assay: Functional cAMP activation in the presence of 0.1% casein (no HSA); conditions: read-out: Relative cAMP EC50, hGLP-1R;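 also: intracellular cAMP rise after 30 min at 37 °C read by HTRF, normalized between buffer only (0%) and maximal control ligand (100%), four-parameter variable-slope fit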
T1 sequence (P43220 24-463): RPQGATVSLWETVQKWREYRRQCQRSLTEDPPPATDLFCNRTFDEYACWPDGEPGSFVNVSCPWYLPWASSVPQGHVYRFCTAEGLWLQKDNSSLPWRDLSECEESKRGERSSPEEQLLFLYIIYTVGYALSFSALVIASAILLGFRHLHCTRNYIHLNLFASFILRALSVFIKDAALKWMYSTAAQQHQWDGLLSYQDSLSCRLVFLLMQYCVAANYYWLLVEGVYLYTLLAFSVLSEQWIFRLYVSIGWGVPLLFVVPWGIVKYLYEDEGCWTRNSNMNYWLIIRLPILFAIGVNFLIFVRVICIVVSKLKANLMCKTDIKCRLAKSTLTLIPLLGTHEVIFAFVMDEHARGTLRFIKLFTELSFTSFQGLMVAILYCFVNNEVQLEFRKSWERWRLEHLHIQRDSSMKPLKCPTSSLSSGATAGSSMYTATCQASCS

[2] = molecular target: T2, hGIPR (Homo sapiens, UniProt P48546); assay: Functional cAMP activity in the presence of 1% HSA; conditions: read-out: cAMP Rel EC50, hGIPR
T2 sequence (P48546 22-466): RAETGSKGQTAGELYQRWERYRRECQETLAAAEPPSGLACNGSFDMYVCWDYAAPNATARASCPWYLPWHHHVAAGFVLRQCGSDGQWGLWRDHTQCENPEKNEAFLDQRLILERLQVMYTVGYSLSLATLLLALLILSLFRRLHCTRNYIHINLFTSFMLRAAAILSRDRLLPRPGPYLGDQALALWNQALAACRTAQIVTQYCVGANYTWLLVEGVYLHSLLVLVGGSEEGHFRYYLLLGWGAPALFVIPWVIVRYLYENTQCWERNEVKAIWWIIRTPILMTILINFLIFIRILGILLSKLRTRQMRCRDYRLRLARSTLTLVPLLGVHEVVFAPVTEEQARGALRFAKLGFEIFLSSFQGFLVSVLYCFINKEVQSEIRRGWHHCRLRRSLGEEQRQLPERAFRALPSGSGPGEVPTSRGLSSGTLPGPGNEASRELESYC

[3] = molecular target: T1, hGLP-1R; assay: Functional cAMP activity in the presence of 1% HSA; conditions: read-out: cAMP Rel EC50, hGLP-1R
[4] = molecular target: T2, hGIPR; assay: Functional cAMP activation in the presence of 0.1% casein (no HSA); conditions: read-out: Relative cAMP EC50, hGIPR;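 also: intracellular cAMP rise after 30 min at 37 °C read by HTRF against a standard curve, scaled between buffer alone (0%) and top control ligand concentration (100%), four-parameter fit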
Description: After a 30-minute incubation at 37° C., the resulting increase in intracellular cAMP is quantitatively determined using the CisBio CAMP Dynamic 2 HTRF Assay Kit (62AM4PEJ). Briefly, cAMP levels within the cell are detected by adding the cAMP-d2 conjugate in cell lysis buffer followed by the antibody anti-cAMP-Eu^3+-Cryptate, also in cell lysis buffer.
Intracellular cAMP levels are determined by extrapolation using a standard curve. Dose response curves of compounds are plotted as the percentage of stimulation normalized to minimum (buffer only) and maximum (maximum concentration of each control ligand) values and analyzed using a four parameter non-linear regression fit with a variable slope (Genedata Screener 13). EC50 is the concentration of compound causing half-maximal simulation in a dose response curve. Each relative EC50 value for the Geometric mean calculation is determined from a curve fitting.

[5] = molecular target: human GcgR (Homo sapiens, UniProt P47871); assay: Functional cAMP activity in the presence of 1% HSA; conditions: read-out: cAMP Rel EC50, hGcgR
Chain of human GcgR (P47871 26-477): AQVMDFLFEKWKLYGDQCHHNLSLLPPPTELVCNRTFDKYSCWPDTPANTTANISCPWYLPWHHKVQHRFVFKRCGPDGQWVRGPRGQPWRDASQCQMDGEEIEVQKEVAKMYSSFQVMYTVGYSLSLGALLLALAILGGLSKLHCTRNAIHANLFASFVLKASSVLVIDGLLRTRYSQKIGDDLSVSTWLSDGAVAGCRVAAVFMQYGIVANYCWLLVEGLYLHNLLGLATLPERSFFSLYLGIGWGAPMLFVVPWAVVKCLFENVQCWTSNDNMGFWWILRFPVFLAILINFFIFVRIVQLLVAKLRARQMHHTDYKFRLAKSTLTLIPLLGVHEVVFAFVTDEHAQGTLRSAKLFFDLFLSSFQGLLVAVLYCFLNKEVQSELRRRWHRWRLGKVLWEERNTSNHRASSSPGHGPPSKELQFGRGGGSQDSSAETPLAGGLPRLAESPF

[6] = molecular target: hGcgR (Homo sapiens, UniProt P47871); assay: Functional cAMP activation in the presence of 0.1% casein (no HSA); conditions: read-out: Relative cAMP EC50, hGcgR;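 also: intracellular cAMP rise after 30 min at 37 °C, read by HTRF against a cAMP standard curve, scaled from buffer only (0%) to maximal control ligand response (100%)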
Chain of hGcgR (P47871 26-477): as above

[7] = in the presence of 0.1% casein (no HSA), geometric mean

| Substance | EC50 [1, 7] [nM] | EC50 [2] [nM] | EC50 [3] [nM] | EC50 [4, 7] [nM] | EC50 [5] [nM] | EC50 [6, 7] [nM] | EC50 [1] [nM] | EC50 [4] [nM] | EC50 [6] [nM] |
| --- | --- | --- | --- | --- | --- | --- | --- | --- | --- |
| H-Y[Aib]QGTFTSD[Phe(4-CN)]S[Orn][αMeL]LDKK([AEEA-γGlu-C18 diacid])AQ[Aib]AFIEYLLE[Aib]GPSSGAPPPSGS-NH2 [Example 191] | 2.48 | 47.4 | 230 | 0.422 | 344 | 2.11 |  |  |  |
| H-Y[Aib]QGT[αMeF]TSD[4Pal][αMeS]I[αMeL]LD[Orn]K([AEEA-γGlu-C18 diacid])AQ[αMe4Pal]EFI[dE][αMeY]LIEGGPSSGAPPPSGE-NH2 [Example 1164] | 0.495 | 1.17 | 63.5 | 0.0104 | 359 | 2.83 |  |  |  |
| H-Y[Aib]QGT[αMeF]TSD[4Pal][αMeS]I[αMeL]LD[Orn]K([AEEA-γGlu-C18 diacid])AQ[αMe4Pal]EFI[dE][αMeY]LIEGGPSSGAPPPSGSE-NH2 [Example 1166] | 0.478 | 1.1 | 65.6 | 0.00999 | 427 | 2.94 |  |  |  |
| H-Y[Aib]QGT[αMeF]TSD[4Pal][αMeS]I[αMeL]LD[Orn]K([AEEA-γGlu-C18 diacid])AQ[αMe4Pal]EFI[dE][αMeY]LIEGGPSSGEPPPSGSE-NH2 [Example 1167] | 0.636 | 1.22 | 89.2 | 0.011 | 274 | 2.16 |  |  |  |
| H-Y[Aib]QGT[αMeF]TSD[4Pal][αMeS]I[αMeL]LD[Orn]K([γGlu-γGlu-C18 diacid])AQ[αMe4Pal]EFI[dE][αMeY]LIEGGPSSGAPPPSGE-NH2 [Example 1170] | 0.395 | 0.663 | 50.2 | 0.00783 | 249 | 2.43 |  |  |  |
| H-Y[Aib]QGT[αMeF]TSD[4Pal][αMeS]I[αMeL]LD[Orn]K([γGlu-γGlu-C18 diacid])AQ[αMe4Pal]EFI[dE][αMeY]LIEGGPSSGAPPPSGSE-NH2 [Example 1172] | 0.44 | 0.7 | 45.5 | 0.00886 | 303 | 2.52 |  |  |  |
| H-Y[Aib]QGT[αMeF]TSD[4Pal][αMeS]I[αMeL]LD[Orn]K([γGlu-γGlu-C18 diacid])AQ[αMe4Pal]EFI[dE][αMeY]LIEGGPSSGEPPPSGE-NH2 [Example 1171] | 0.529 | 0.718 | 52.9 | 0.00953 | 233 | 2.19 |  |  |  |
| H-Y[Aib]QGT[αMeF]TSD[4Pal][αMeS]I[αMeL]LD[Orn]K([γGlu-γGlu-C18 diacid])AQ[αMe4Pal]EFI[dE][αMeY]LIEGGPSSGEPPPSGGGE-NH2 [Example 1175] | 0.572 | 0.768 | 60.7 | 0.00962 | 282 | 2.08 |  |  |  |
| H-Y[Aib]QGT[αMeF]TSD[4Pal][αMeS]I[αMeL]LD[Orn]K([γGlu-γGlu-C18 diacid])AQ[αMe4Pal]EFI[dE][αMeY]LIEGGPSSGEPPPSGSE-NH2 [Example 1173] | 0.604 | 0.764 | 59.1 | 0.00943 | 254 | 2.31 |  |  |  |
| H-Y[Aib]QGT[αMePhe(2-F)]TSDFSILLDKQAQK([AEEA-AEEA-γGlu-C20 diacid])AFIEYLLEGGPSSGEPPPSEG-NH2 [Example 346] | 1.17 | 28.3 | 514 | 0.0738 | 4310 | 15.6 |  |  |  |
| H-Y[Aib]QGT[αMePhe(2-F)]TSDYSILLDKAAQK([AEEA-γGlu-C20 diacid])[Orn]FIEYLIEGGPSSGEPPPSEG-NH2 [Example 306] | 0.335 | 95.3 | 126 | 0.142 | 2820 | 5.8 |  |  |  |
| H-Y[Aib]QGT[αMePhe(2-F)]TSDYSILLDKK([AEEA-γGlu-C18 diacid])AQ[Aib]AFIEFLEEGGPSSGAPPPSEG-NH2 [Example 412] |  | 12.5 | 46 |  | 467 |  | 0.282 | 0.0351 | 2.36 |
| H-Y[Aib]QGT[αMePhe(2-F)]TSDYSILLDKK([AEEA-γGlu-C18 diacid])AQ[Aib]AFIEYLEEGGPSSGAPPPEEG-NH2 [Example 399] |  | 19.6 | 42.8 |  | 560 |  | 0.302 | 0.0413 | 1.51 |
